According to article PMC5916221, “High-throughput identification of G protein-coupled receptor modulators through affinity mass spectrometry screening” (Chemical Science, 2018):
Several values for one entry are separate records, joined by “and”; a condition that tells them apart may be missing. Identical values can stand only once.

What was measured:
[1] = target: T1, 5-HT2CR (Homo sapiens, UniProt P28335); assay: biochemical; design: CPM fluorescent dye thermal shift assay on purified receptor, Tm shift versus apo receptor; settings: single replicate of two; for ΔTm (°C): 100 µM, binder
T1 construct: gene HTR2C
T1 sequence (P28335 1-458): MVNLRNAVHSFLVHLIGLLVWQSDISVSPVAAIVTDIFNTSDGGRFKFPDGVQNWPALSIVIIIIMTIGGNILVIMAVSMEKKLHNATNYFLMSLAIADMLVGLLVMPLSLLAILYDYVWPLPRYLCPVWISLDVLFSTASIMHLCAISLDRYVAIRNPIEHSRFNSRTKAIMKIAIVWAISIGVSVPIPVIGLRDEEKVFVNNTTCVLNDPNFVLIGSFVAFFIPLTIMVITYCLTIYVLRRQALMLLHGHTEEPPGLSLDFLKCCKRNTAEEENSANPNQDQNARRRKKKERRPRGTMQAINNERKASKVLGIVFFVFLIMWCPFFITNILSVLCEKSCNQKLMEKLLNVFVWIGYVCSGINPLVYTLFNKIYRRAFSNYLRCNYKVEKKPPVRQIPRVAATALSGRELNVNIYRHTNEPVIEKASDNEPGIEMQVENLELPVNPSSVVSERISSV
Description: The thermal shift assay using a CPM fluorescent dye (Sigma) was performed as described in the literature.[27] […] The protein sample was heated step-wise on a Rotor-Gene Thermo-optical Analyzer (QIAGEN Gmbh) from 25 °C to 95 °C. Upon temperature rise, the proteins unfolded and cysteine residues were exposed to form adducts with CPM, which were detected by fluorescence at 387/463 nm using an EnVision multilabel plate reader (PerkinElmer). From the normalized thermal stability curve, melting temperatures (Tm) were obtained by fitting the curve with a Boltzmann sigmoidal function using GraphPad Prism. Comparison of Tm for the apo receptor and receptor incubated with a compound gave rise to Tm shift (ΔTm) for the compound. Using stringent data processing criteria for compound annotation and hit selection (see ESI ^†), we identified a total of 23 initial hits from screening the 9 cocktails (Fig. 2, full data set in Table S1 ^†). Twelve were well characterized antagonists for 5-HT2CR or a closely-related subfamily member 5-HT2AR with a mean BI of 2.16 to 9.71 (full data set in Table S2 ^†). […] While their IC50 or Ki values from the ChEMBL database were all above 10 nM, 85% had IC50 or Ki > 100 nM towards 5-HT2CR. Therefore, the stringent BI cut-off defined for hit selection ensured identification of highest affinity ligands with a minimal false-positive rate. To verify the 11 initial hits with no documented binding to the 5-HT2 receptor family, a simple mixture was created by pooling and incubating them with the receptor-expressing membranes. Four hits were verified in this secondary affinity MS assay (Fig. 3a). Those that were invalidated could have resulted from compound misidentification or altered binding properties in the original complex mixtures. […] The radioligand competition assay verified potent antagonist binding of 3943 to all three 5-HT2 receptor subtypes in the nanomolar range, with stronger affinity to 5-HT2A/2BR than 5-HT2CR (Fig. 3c, S3b ^†). It was not surprising to identify a new antagonist against three 5-HT2 receptor subfamily members using our approach because of the high sequence homology and very similar ligand binding pockets among them.

[2] = target: T2, glucagon-like peptide-1 receptor (GLP-1R) (Homo sapiens, UniProt P43220, DEL258-263); assay: affinity MS on receptor-expressing membranes, binding index vs rhodopsin control
T2 construct: gene GLP1R; TMD residues 128–431 with intracellular loop 2 (258–263) replaced by rubredoxin, N-terminal BRIL
T2 sequence (P43220 128-257): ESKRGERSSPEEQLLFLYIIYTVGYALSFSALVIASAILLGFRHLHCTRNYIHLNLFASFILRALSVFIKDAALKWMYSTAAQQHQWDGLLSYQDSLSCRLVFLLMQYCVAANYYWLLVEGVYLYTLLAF
T2 sequence (P43220 264-431): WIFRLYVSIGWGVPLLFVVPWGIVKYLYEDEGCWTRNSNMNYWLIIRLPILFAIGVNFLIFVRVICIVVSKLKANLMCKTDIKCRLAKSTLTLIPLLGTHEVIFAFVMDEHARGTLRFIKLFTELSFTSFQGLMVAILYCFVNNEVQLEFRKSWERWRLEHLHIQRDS

ΔTm at 100 µM [1] | affinity MS on receptor-expressing membranes, binding index vs rhodopsin control [2] | ΔTm (°C) [1] | Structure (SMILES)
2 °C |  |  | C[C@@H]1CN(c2c(F)c(F)c3c(=O)c(C(=O)O)cn(C4CC4)c3c2F)C[C@H](C)N1 [compound 1382, Orbifloxacin]
 | 3.31 binding index (ratio) |  | CS(=O)(=O)c1cccc(NC(=O)N(Cc2ccc(C(=O)Nc3nnn[nH]3)cc2)c2ccc(C3CCCCC3)cc2)c1 [NNC0640]
0.2 °C |  |  | CC(C)c1nc(CN(C)C(=O)N[C@H](C(=O)N[C@@H](Cc2ccccc2)C[C@H](O)[C@H](Cc2ccccc2)NC(=O)OCc2cncs2)C(C)C)cs1 [compound 462, Ritonavir]
6.2 °C |  | 6.9 °C | C1=Cc2ccccc2C(=C2CCN(CCCCc3nn[nH]n3)CC2)c2ccccc21 [compound 3943, AT-56]
 | 16.66 binding index (ratio) |  | CC1(C)CC([C@@H](Nc2ccc(-n3cnc(C(F)(F)F)c3)nc2)c2ccc(C(=O)NCCC(=O)O)cc2)C1 [PF06372222]
 |  | -3.0 °C and -0.2 °C | O=C(NC1CCNCC1)c1n[nH]cc1NC(=O)c1c(Cl)cccc1Cl [compound 3931, AT 7519]
